Test results reported in patent US12552825B2 (Zikani Therapeutics, Inc., priority 2019, dated 2026).
Converted amounts (≈) assume the structure as drawn.

Key:
Format in all cases: cell-based
E. coli MP-4 = assay: MIC determination by CLSI broth dilution, E. coli MP-4; settings: Escherichia coli, MP4, CLSI broth dilution; strain MP-4
P. aeruginosa MP-3 = assay: MIC determination by CLSI broth dilution, P. aeruginosa MP-3; settings: Pseudomonas aeruginosa, MP3, strain MP-3
K. pneumoniae MP-648 = assay: MIC determination by CLSI broth dilution, K. pneumoniae MP-648; settings: Klebsiella pneumoniae, MP648, CLSI broth dilution; strain MP-648
K. pneumoniae MP-546 = assay: MIC determination by CLSI broth dilution, K. pneumoniae MP-546; settings: Klebsiella pneumoniae, MP546, CLSI broth dilution; strain MP-546
S. aureus MP-12 = assay: microbe, parasite or virus in culture; settings: Staphylococcus aureus, MP12, read-out: MIC S. aureus MP-12
A. baumannii MP-15 = assay: MIC determination by CLSI broth dilution, A. baumannii MP-15; settings: Acinetobacter baumannii, MP15, strain MP-15, read-out: MIC A. baumanii MP-15

| Structure (SMILES) | MIC (E. coli MP-4) | MIC (P. aeruginosa MP-3) | MIC (K. pneumoniae MP-648) | MIC (K. pneumoniae MP-546) | MIC (S. aureus MP-12) | MIC (A. baumannii MP-15) |
| --- | --- | --- | --- | --- | --- | --- |
| CO[C@]1(C)C[C@@H](C)CN(C)[C@H](CC2CCN(C=O)CC2)COC(=O)C(C)(C)C(=O)[C@H](C)[C@H]1O[C@@H]1O[C@H](C)C[C@H](N(C)C)[C@H]1O [Compound 64] | > 32 µg/mL | > 32 µg/mL | > 32 µg/mL | > 32 µg/mL | > 32 µg/mL | > 32 µg/mL |
| COC(CN1CCC(C[C@@H]2COC(=O)C(C)(C)C(=O)[C@H](C)[C@@H](O[C@@H]3O[C@H](C)C[C@H](N(C)C)[C@H]3O)[C@](C)(OC)C[C@@H](C)CN2C)CC1)OC [Compound 65] | < 4 µg/mL | > 32 µg/mL | 4 to 32 µg/mL (≈ 5.83 to 46.7 µM) | < 4 µg/mL | 4 to 32 µg/mL (≈ 5.83 to 46.7 µM) | > 32 µg/mL |
| CO[C@]1(C)C[C@@H](C)CN(C)[C@@H](CC2CCN(CC3CC=CCC3)CC2)COC(=O)C(C)(C)C(=O)[C@H](C)[C@H]1O[C@@H]1O[C@H](C)C[C@H](N(C)C)[C@H]1O (stereo partly drawn) [Compound 73] | < 4 µg/mL | > 32 µg/mL | 4 to 32 µg/mL (≈ 5.78 to 46.2 µM) | < 4 µg/mL | 4 to 32 µg/mL (≈ 5.78 to 46.2 µM) | > 32 µg/mL |
| CO[C@]1(C)C[C@@H](C)CN(C)[C@H](CC2CN(CC(C)C)C2)COC(=O)C(C)(C)C(=O)[C@H](C)[C@H]1O[C@@H]1O[C@H](C)C[C@H](N(C)C)[C@H]1O [Compound 74] | > 32 µg/mL | > 32 µg/mL | > 32 µg/mL | > 32 µg/mL | > 32 µg/mL | > 32 µg/mL |
| CCCN1CCC(CC[C@@H]2COC(=O)C(C)(C)C(=O)[C@H](C)[C@@H](O[C@@H]3O[C@H](C)C[C@H](N(C)C)[C@H]3O)[C@](C)(OC)C[C@@H](C)CN2C)CC1 [Compound 75] | 4 to 32 µg/mL (≈ 6.12 to 48.9 µM) | > 32 µg/mL | > 32 µg/mL | > 32 µg/mL | > 32 µg/mL | > 32 µg/mL |
| CO[C@]1(C)C[C@@H](C)CN(C)[C@H](CCC2CCN(CC(C)C)CC2)COC(=O)C(C)(C)C(=O)[C@H](C)[C@H]1O[C@@H]1O[C@H](C)C[C@H](N(C)C)[C@H]1O [Compound 76] | < 4 µg/mL | > 32 µg/mL | 4 to 32 µg/mL (≈ 5.99 to 47.9 µM) | 4 to 32 µg/mL (≈ 5.99 to 47.9 µM) | > 32 µg/mL | > 32 µg/mL |
| CO[C@H](CCN1CCCC1)[C@@H]1COC(=O)C(C)(C)C(=O)[C@H](C)[C@@H](O[C@@H]2O[C@H](C)C[C@H](N(C)C)[C@H]2O)[C@](C)(OC)C[C@@H](C)CN1C [Compound 77] | < 4 µg/mL | > 32 µg/mL | < 4 µg/mL | < 4 µg/mL | 4 to 32 µg/mL (≈ 6.23 to 49.9 µM) | > 32 µg/mL |
| CO[C@]1(C)C[C@@H](C)CN(C)[C@H]([C@H](O)CCN2CCCC2)COC(=O)C(C)(C)C(=O)[C@H](C)[C@H]1O[C@@H]1O[C@H](C)C[C@H](N(C)C)[C@H]1O [Compound 78, (3S,6R,8R,9R,10R)-9-(((2S,3R,4S,6R)-4-(Dimethylamino)-3-hydroxy-6-methyltetrahydro-2H-pyran-2-yl)oxy)-3-((R)-1-hydroxy-3-(pyrrolidin-1-yl)propyl)-8-methoxy-4,6,8,10,12,12-hexamethyl-1-oxa-4-azacyclotridecane-11,13-dione] | < 4 µg/mL | > 32 µg/mL | < 4 µg/mL | < 4 µg/mL | < 4 µg/mL | > 32 µg/mL |
| CCCN1CC(C[C@H]2COC(=O)C(C)(C)C(=O)[C@H](C)[C@@H](O[C@@H]3O[C@H](C)C[C@H](N(C)C)[C@H]3O)[C@](C)(OC)C[C@@H](C)CN2C)C1 [Compound 79] | 4 to 32 µg/mL (≈ 6.54 to 52.3 µM) | > 32 µg/mL | > 32 µg/mL | > 32 µg/mL | > 32 µg/mL | > 32 µg/mL |
| CO[C@]1(C)C[C@@H](C)CN(C)[C@H](CCCN2CCC(F)CC2)COC(=O)C(C)(C)C(=O)[C@H](C)[C@H]1O[C@@H]1O[C@H](C)C[C@H](N(C)C)[C@H]1O [Compound 85, (3R,6R,8R,9R,10R)-9-(((2S,3R,4S,6R)-4-(dimethylamino)-3-hydroxy-6-methyltetrahydro-2H-pyran-2-yl)oxy)-3-(3-(4-fluoropiperidin-1-yl)propyl)-8-methoxy-4,6,8,10,12,12-hexamethyl-1-oxa-4-azacyclotridecane-11,13-dione] | < 4 µg/mL | > 32 µg/mL | < 4 µg/mL | < 4 µg/mL | < 4 µg/mL | > 32 µg/mL |
| CCN1C[C@H](C)C[C@@](C)(OC)[C@H](O[C@@H]2O[C@H](C)C[C@H](N(C)C)[C@H]2O)[C@@H](C)C(=O)C(C)(C)C(=O)OC[C@@H]1CCCN1CCCC1 [Compound 87, (3S,6R,8R,9R,10R)-9-(((2S,3R,4S,6R)-4-(dimethylamino)-3-hydroxy-6-methyltetrahydro-2H-pyran-2-yl)oxy)-4-ethyl-8-methoxy-6,8,10,12,12-pentamethyl-3-(3-(pyrrolidin-1-yl)propyl)-1-oxa-4-azacyclotridecane-11,13-dione] | < 4 µg/mL | > 32 µg/mL | < 4 µg/mL | < 4 µg/mL | < 4 µg/mL | > 32 µg/mL |
| CCN1C[C@H](C)C[C@@](C)(OC)[C@H](O[C@@H]2O[C@H](C)C[C@H](N(C)C)[C@H]2O)[C@@H](C)C(=O)C(C)(C)C(=O)OC[C@H]1CCCN1CCC[C@@H]1C [Compound 88, (3R,6R,8R,9R,10R)-9-(((2S,3R,4S,6R)-4-(dimethylamino)-3-hydroxy-6-methyltetrahydro-2H-pyran-2-yl)oxy)-4-ethyl-8-methoxy-6,8,10,12,12-pentamethyl-3-(3-((S)-2-methylpyrrolidin-1-yl)propyl)-1-oxa-4-azacyclotridecane-11,13-dione] | < 4 µg/mL | > 32 µg/mL | < 4 µg/mL | < 4 µg/mL | 4 to 32 µg/mL (≈ 6.25 to 50 µM) | > 32 µg/mL |
| CO[C@]1(C)C[C@@H](C)CN(C)[C@@H](CCCN(C)C2CC2)COC(=O)C(C)(C)C(=O)[C@H](C)[C@H]1O[C@@H]1O[C@H](C)C[C@H](N(C)C)[C@H]1O [Compound 90, (3S,6R,8R,9R,10R)-3-(3-(cyclopropyl(methyl)amino)propyl)-9-(((2S,3R,4S,6R)-4-(dimethylamino)-3-hydroxy-6-methyltetrahydro-2H-pyran-2-yl)oxy)-8-methoxy-4,6,8,10,12,12-hexamethyl-1-oxa-4-azacyclotridecane-11,13-dione] | < 4 µg/mL | > 32 µg/mL | 4 to 32 µg/mL (≈ 6.54 to 52.3 µM) | < 4 µg/mL | 4 to 32 µg/mL (≈ 6.54 to 52.3 µM) | > 32 µg/mL |
| CO[C@]1(C)C[C@@H](C)CN(C)[C@@H](CCCN2CCC(O)CC2)COC(=O)C(C)(C)C(=O)[C@H](C)[C@H]1O[C@@H]1O[C@H](C)C[C@H](N(C)C)[C@H]1O [Compound 92, (3S,6R,8R,9R,10R)-9-(((2S,3R,4S,6R)-4-(dimethylamino)-3-hydroxy-6-methyltetrahydro-2H-pyran-2-yl)oxy)-3-(3-(4-hydroxypiperidin-1-yl)propyl)-8-methoxy-4,6,8,10,12,12-hexamethyl-1-oxa-4-azacyclotridecane-11,13-dione] | < 4 µg/mL | > 32 µg/mL | 4 to 32 µg/mL (≈ 6.23 to 49.9 µM) | 4 to 32 µg/mL (≈ 6.23 to 49.9 µM) | > 32 µg/mL | > 32 µg/mL |
